From patent US20260305610A1, “TRIAZOLE COMPOUND, AND PREPARATION METHOD THEREFOR, HERBICIDAL COMPOSITION AND USE THEREOF” (QINGDAO KINGAGROOT CHEMICAL COMPOUND CO., LTD., priority 2023, published 2026)

Legend:
[1] = test system: Descurainia sophia; assay: Activity assay of compositions: post-emergence spray treatment of stems and leaves (F), fresh weight inhibition and combined effect (Gowing method); assay type: in vivo; settings: 21 d
Protocol: (§1) The required active ingredient B was purchased from a reagent company or a technical material manufacturer or synthesized by a conventional method. The technical materials were all dissolved with acetone solvents and diluted with aqueous solution of 0.1% Tween-80 emulsifier, which should be used immediately after dilution.
Descurainia sophia weeds were cultivated by a pot culture method. […] Weed seeds with plump and uniform grains were selected, treated with 30% hydrogen peroxide for 10 min, and accelerated to germinate at 15-20° C. in a biochemical incubator (in darkness). The weed seeds that had just germinated were evenly placed on the surface of the soil and then covered with 0.5-1 cm soil according to the sizes of seeds.
The culture was carried out in a controllable sunlight greenhouse at 20-30° C., in natural light, and with relative humidity of 57%-72%.
Each treatment was repeated 4 times. Three pots with 20 weed seeds sowed per pot were treated each time.
The agents were used once in total in the experiment. When at the stage of 1.5-2 leaves, the weeds were thinned out to maintain 10 weeds per pot. Thirty weeds were kept in each treatment, and then continued to be cultured until the 10-leaf stage for further treatment.
(§2) The well-cultured test materials were evenly placed on a platform with an area of 0.5 m^2, and foliage spraying was carried out by the 3WP-2000-type walking spray tower at a dosage of 450 kg/ha and a spray pressure of 0.3 MPa. After all the solution was sprayed, the air valve was closed, and 30 seconds later, the door of the spray tower was opened, and the nutritional bowl was taken out. Next, the air valve was opened, and the spray tube was cleaned by spraying 50 ml of water. The test materials were transferred to and routinely cultured in a greenhouse after the treatment.
(§3) A method for investigating absolute numbers was employed. Whole seedlings of survival weeds were cut off along the soil surface with a blade, and the fresh weight of the weeds was weighed using an analytical balance. For dead weeds, the fresh weight thereof was zero.
(§4) The investigation was performed 21 days after the treatment for once in total.
(§5) The theoretical fresh weight inhibition rate of a mixed combination of each treatment was calculated by the Gowing method (E0=X+Y−X*Y/100). Then compared with the measured inhibition rate (E), the type of the combined effect of the combination of the two on weeds was evaluated, which was a synergistic effect when E−E0>10%; an antagonistic effect when E−E0<−10%; an additional effect when −10%≤E−E0≤10%. An optimal ratio was determined according to factors such as the actual control effects, characteristics of herbicides, balance of the formulation, etc. In the formula, X represents the fresh weight inhibition rate of the active ingredient A in a dosage of P; Y represents the fresh weight inhibition rate of the active ingredient B in a dosage of Q. The statistical results are shown in Table 4.

[2] = test system: weeds; assay: Activity assay of compositions: soil sealing treatment (S), fresh weight inhibition and combined effect (Gowing method); assay type: in vivo; settings: 21 d
Protocol: as §1
• Weeds were cultivated in a controllable sunlight greenhouse at 20 to 30° C., in natural light, and with relative humidity of 57% to 72%. […] The test soil was quantitatively filled to ¾ of the pot, and then watered from the bottom of the pot to completely wet the soil to saturation. The test weed seeds were accelerated to just germinate, and then evenly and quantitatively broadcasted on the soil surface, covered with 0.5-1 cm soil according to the sizes of the seeds, and ready for use 72 hours after sowing.
Each treatment was repeated 4 times. Four pots with 20 weed seeds sowed per pot were treated each time.
as §2, with “well-sowed” for “well-cultured”, “closed. And” for “closed, and”, “water.” for “water. The test materials were transferred to and routinely cultured in a greenhouse after the treatment.”
as §3, §4, §5

[3] = Commelina communis, B 30 g a.i./ha
[4] = Commelina communis, B 60 g a.i./ha
[5] = Lolium multiflorum, B 30 g a.i./ha
[6] = Lolium multiflorum, B 60 g a.i./ha
[7] = Eclipta prostrata, B 150 g a.i./ha
[8] = Eclipta prostrata, B 300 g a.i./ha
[9] = Eclipta prostrata, B 7.5 g a.i./ha
[10] = Eclipta prostrata, B 15 g a.i./ha
[11] = Lolium multiflorum, B 300 g a.i./ha
[12] = Eclipta prostrata, B 22.5 g a.i./ha
[13] = Eclipta prostrata, B 45 g a.i./ha
[14] = Amaranthus retroflexus, B 150 g a.i./ha
[15] = Amaranthus retroflexus, B 300 g a.i./ha
[16] = Eclipta prostrata, B 75 g a.i./ha
[17] = Eleocharis yokoscensis, B 150 g a.i./ha
[18] = Eleocharis yokoscensis, B 300 g a.i./ha
[19] = Eclipta prostrata, B 30 g a.i./ha

O=C(O)c1nc(Cl)ccc1Cl [Clopyralid]
Control effect of B applied alone in a corresponding dose (%) ([1]; B 30 g a.i./ha): 40.5% | Control effect of B applied alone in a corresponding dose (%) ([1]; B 60 g a.i./ha): 58.8%

CCOC(=O)C1(C)CC(c2cc(-n3c(=O)cc(C(F)(F)F)n(C)c3=O)c(F)cc2Cl)=NO1 (stereo not drawn) [3-[2-chloro-5-[3,6-dihydro-3-methyl-2,6-dioxo-4-(trifluoromethyl)-1(2H)-pyrimidinyl]-4-fluorophenyl]-4,5-dihydro-5-methyl-5-isoxazolecarboxylic acid ethyl ester]
Control effect of B applied alone in a corresponding dose (%) [2, 3]: 35.0% | Control effect of B applied alone in a corresponding dose (%) [2, 4]: 47.3%

CCNc1nc(Cl)nc(NC(C)(C)C)n1 [Terbuthylazine]
Control effect of B applied alone in a corresponding dose (%) ([2]; Chloris virgata, B 225 g a.i./ha): 35.5% | Control effect of B applied alone in a corresponding dose (%) ([2]; Chloris virgata, B 450 g a.i./ha): 52.7%

Cc1nn(-c2cc(NS(C)(=O)=O)c(Cl)cc2Cl)c(=O)n1C(F)F [Sulfentrazone]
Control effect of B applied alone in a corresponding dose (%) ([2]; Solanum nigrum, B 15 g a.i./ha): 48.5% | Control effect of B applied alone in a corresponding dose (%) ([2]; Solanum nigrum, B 30 g a.i./ha): 60.0%

CC(C)N(C(=O)COc1nnc(C(F)(F)F)s1)c1ccc(F)cc1 [Flufenacet]
Control effect of B applied alone in a corresponding dose (%) [2, 5]: 46.2% | Control effect of B applied alone in a corresponding dose (%) [2, 6]: 68.5%

CCCCOCN(C(=O)CCl)c1c(CC)cccc1CC [Butachlor]
Control effect of B applied alone in a corresponding dose (%) [2, 7]: 37.2% | Control effect of B applied alone in a corresponding dose (%) [2, 8]: 66.8%

CC1=C(c2ccccc2)C(=O)N(C(C)(C)c2cc(Cl)cc(Cl)c2)CO1 [Oxaziclomefone]
Control effect of B applied alone in a corresponding dose (%) [2, 9]: 38.9% | Control effect of B applied alone in a corresponding dose (%) [2, 10]: 56.8%

CCCN(CCC)C(=O)SCc1ccccc1 [Prosulfocarb]
Control effect of B applied alone in a corresponding dose (%) [2, 11]: 46.5% | Control effect of B applied alone in a corresponding dose (%) ([2]; Lolium multiflorum, B 600 g a.i./ha): 64.2%

COC(=O)[C@@H](C)O/N=C/c1cc(-n2c(=O)cc(C(F)(F)F)n(C)c2=O)c(F)cc1Cl
Control effect of B applied alone in a corresponding dose (%) [2, 3]: 28.5% | Control effect of B applied alone in a corresponding dose (%) [2, 4]: 46.1%

CCN(C(=O)n1nnn(-c2ccccc2Cl)c1=O)C1CCCCC1 [Fentrazamide]
Control effect of B applied alone in a corresponding dose (%) [2, 12]: 35.1% | Control effect of B applied alone in a corresponding dose (%) [2, 13]: 48.9%

COC(=O)c1sccc1S(=O)(=O)NC(=O)Nc1nc(C)nc(OC)n1 [Thifensulfuron-methyl]
Control effect of B applied alone in a corresponding dose (%) ([2]; Silene conoidea, B 30 g a.i./ha): 47.5% | Control effect of B applied alone in a corresponding dose (%) ([2]; Silene conoidea, B 60 g a.i./ha): 62.1%

CS(=O)(=O)c1ccc(C(=O)C2=C(Sc3ccccc3)C3CCC(C3)C2=O)c(Cl)c1 (stereo not drawn) [Benzobicyclon]
Control effect of B applied alone in a corresponding dose (%) [2, 12]: 49.2% | Control effect of B applied alone in a corresponding dose (%) [2, 13]: 74.0%

CC(C)N(C)S(=O)(=O)NC(=O)c1cc(-n2c(=O)cc(C(F)(F)F)n(C)c2=O)c(F)cc1Cl [Saflufenacil]
Control effect of B applied alone in a corresponding dose (%) [2, 9]: 50.8% | Control effect of B applied alone in a corresponding dose (%) [2, 10]: 69.6%

CCCc1ccc2nc(Cl)c(S(=O)(=O)NC(=O)Nc3nc(OC)cc(OC)n3)n2n1 [Propyrisulfuron]
Control effect of B applied alone in a corresponding dose (%) [2, 9]: 42.8% | Control effect of B applied alone in a corresponding dose (%) [2, 10]: 63.0%

CCCN(CCC)c1c([N+](=O)[O-])cc(C(F)(F)F)cc1[N+](=O)[O-] [Trifluralin]
Control effect of B applied alone in a corresponding dose (%) [2, 7]: 45.7% | Control effect of B applied alone in a corresponding dose (%) [2, 8]: 67.5%

C#CCN1C(=O)COc2cc(F)c(N3C(=O)C4=C(CCCC4)C3=O)cc21 [Flumioxazin]
Control effect of B applied alone in a corresponding dose (%) ([2]; Commelina communis, B 15 g a.i./ha): 35.0% | Control effect of B applied alone in a corresponding dose (%) [2, 3]: 50.6%

CCOCN(C(=O)CCl)c1c(C)cccc1CC [Acetochlor]
Control effect of B applied alone in a corresponding dose (%) [2, 14]: 40.2% | Control effect of B applied alone in a corresponding dose (%) [2, 15]: 58.3%

CCC(C)Nc1c([N+](=O)[O-])cc(C(C)(C)C)cc1[N+](=O)[O-] (stereo not drawn) [Butralin]
Control effect of B applied alone in a corresponding dose (%) [2, 7]: 47.0% | Control effect of B applied alone in a corresponding dose (%) [2, 8]: 65.3%

C[C@@H](Oc1nc(F)c(Cl)c(N)c1Cl)C(=O)OCC1CCCO1 (stereo partly drawn)
Control effect of B applied alone in a corresponding dose (%) ([2]; Silene conoidea, B 75 g a.i./ha): 48.0% | Control effect of B applied alone in a corresponding dose (%) ([2]; Silene conoidea, B 150 g a.i./ha): 54.2%

CN(C(=O)COc1nc2ccccc2s1)c1ccccc1 [Mefenacet]
Control effect of B applied alone in a corresponding dose (%) [2, 7]: 40.6% | Control effect of B applied alone in a corresponding dose (%) [2, 8]: 69.7%

C[C@@H](Oc1nc(F)c(Cl)c(N)c1Cl)C(=O)O
Control effect of B applied alone in a corresponding dose (%) ([2]; Lolium multiflorum, B 150 g a.i./ha): 38.4% | Control effect of B applied alone in a corresponding dose (%) [2, 11]: 53.7%

CCc1cccc(C)c1N(C(=O)CCl)[C@@H](C)COC [S-metolachlor]
Control effect of B applied alone in a corresponding dose (%) [2, 14]: 41.4% | Control effect of B applied alone in a corresponding dose (%) [2, 15]: 64.6%

CC(C)C12CCC(C)(O1)C(OCc1c(F)cccc1Br)C2 (stereo not drawn)
Control effect of B applied alone in a corresponding dose (%) [2, 5]: 55.2% | Control effect of B applied alone in a corresponding dose (%) [2, 6]: 70.4%

COP(=S)(OC)SCC(=O)N(c1ccc(Cl)cc1)C(C)(C)C [Anilofos]
Control effect of B applied alone in a corresponding dose (%) [2, 16]: 14.2% | Control effect of B applied alone in a corresponding dose (%) [2, 7]: 23.6%

CCNc1nc(Cl)nc(NC(C)C)n1 [Atrazine]
Control effect of B applied alone in a corresponding dose (%) ([2]; Chloris virgata, B 300 g a.i./ha): 40.1% | Control effect of B applied alone in a corresponding dose (%) ([2]; Chloris virgata, B 600 g a.i./ha): 58.9%

C#CCN(C)c1c(C#N)cnn1-c1nn2c(c1Cl)CCCC2 [Pyraclonil]
Control effect of B applied alone in a corresponding dose (%) ([2]; Eclipta prostrata, B 37.5 g a.i./ha): 47.0% | Control effect of B applied alone in a corresponding dose (%) [2, 16]: 65.8%

CSc1nc(NC(C)C)nc(NC(C)C)n1 [Prometryn]
Control effect of B applied alone in a corresponding dose (%) [2, 17]: 42.1% | Control effect of B applied alone in a corresponding dose (%) [2, 18]: 56.9%

COc1nc(OC)nc(C(=O)c2cccc(F)c2N(C)S(=O)(=O)C(F)F)n1 [Triafamone]
Control effect of B applied alone in a corresponding dose (%) [2, 9]: 41.1% | Control effect of B applied alone in a corresponding dose (%) [2, 10]: 68.2%

CSc1nnc(C(C)(C)C)c(=O)n1N [Metribuzin]
Control effect of B applied alone in a corresponding dose (%) [2, 17]: 40.6% | Control effect of B applied alone in a corresponding dose (%) [2, 18]: 58.3%

CC(C)=C1OC(=O)N(c2cc(OC3CCCC3)c(Cl)cc2F)C1=O [Pentoxazone]
Control effect of B applied alone in a corresponding dose (%) [2, 19]: 40.5% | Control effect of B applied alone in a corresponding dose (%) ([2]; Eclipta prostrata, B 60 g a.i./ha): 61.4%

Cc1ccccc1CO[C@@H]1C[C@@]2(C(C)C)CC[C@]1(C)O2 (racemic) [Cinmethylin]
Control effect of B applied alone in a corresponding dose (%) [2, 9]: 51.5% | Control effect of B applied alone in a corresponding dose (%) [2, 10]: 72.0%

CCOC(=O)COc1ncccc1Oc1cc(-n2c(=O)cc(C(F)(F)F)n(C)c2=O)c(F)cc1Cl [Epyrifenacil]
Control effect of B applied alone in a corresponding dose (%) [2, 3]: 38.8% | Control effect of B applied alone in a corresponding dose (%) [2, 4]: 50.5%

COc1cc(OC)nc(NC(=O)NS(=O)(=O)c2c(C3=NOCC(C)O3)c(Cl)nn2C)n1 (stereo not drawn) [Metazosulfuron]
Control effect of B applied alone in a corresponding dose (%) [2, 10]: 51.6% | Control effect of B applied alone in a corresponding dose (%) [2, 19]: 69.2%
